Laboratory results reported in US7964645B2, “Di-aromatic substituted amides as inhibitors for GlyT-1” (Hoffmann-La Roche Inc., priority 2006, dated 2011).

Biological target: T1, mGlyT-1b (Mus musculus, UniProt P28571)
T1 construct: host or cells: Flp-in-CHO
T1 sequence (P28571 1-651 isoform P28571-2): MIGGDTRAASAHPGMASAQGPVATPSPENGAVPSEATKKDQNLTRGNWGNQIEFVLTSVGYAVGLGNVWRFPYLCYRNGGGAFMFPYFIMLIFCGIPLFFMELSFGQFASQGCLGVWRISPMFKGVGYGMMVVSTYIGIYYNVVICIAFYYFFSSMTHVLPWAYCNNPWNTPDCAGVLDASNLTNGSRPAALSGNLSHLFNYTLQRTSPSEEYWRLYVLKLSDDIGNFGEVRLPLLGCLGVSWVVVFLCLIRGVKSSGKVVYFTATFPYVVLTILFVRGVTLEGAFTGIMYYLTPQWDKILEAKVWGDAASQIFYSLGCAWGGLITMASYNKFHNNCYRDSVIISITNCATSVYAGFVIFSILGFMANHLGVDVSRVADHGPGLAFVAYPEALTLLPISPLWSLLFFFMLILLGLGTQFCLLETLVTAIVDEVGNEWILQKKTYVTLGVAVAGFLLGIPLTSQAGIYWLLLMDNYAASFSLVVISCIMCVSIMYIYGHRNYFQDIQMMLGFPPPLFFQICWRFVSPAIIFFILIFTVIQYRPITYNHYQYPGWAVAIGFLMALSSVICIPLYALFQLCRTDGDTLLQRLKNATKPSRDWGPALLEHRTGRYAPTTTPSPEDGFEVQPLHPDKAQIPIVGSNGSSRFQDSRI
Assay: Glycine Uptake Inhibition Assay (mGlyT-1b)
Type: cell-based
Settings: [3H]-glycine uptake in Flp-in-CHO cells transfected with mGlyT-1b cDNA; 20 min at 22° C.; read-out: GlyT-1 IC50
Procedure: DMEM complete medium: Nutrient mixture F-12 (Gibco Life-technologies), fetal bovine serum (FBS) 5%, (Gibco life technologies), Penicillin/Streptomycin 1% (Gibco life technologies), Hygromycin 0.6 mg/ml (Gibco life technologies), Glutamine 1 mM Gibco life technologies)
Uptake buffer (UB): 150 mM NaCl, 10 mM Hepes-Tris, pH 7.4, 1 mM CaCl2, 2.5 mM KCl, 2.5 mM MgSO4, 10 mM (+) D-glucose.
Flp-in™-CHO (Invitrogen Cat n^o R758-07) cells stably transfected with mGlyT1b cDNA.
Glycine Uptake Inhibition Assay (mGlyT-1b)
On day 1 mammalian cells, (Flp-in™-CHO), transfected with mGlyT-1b cDNA, were plated at the density of 40,000 cells/well in complete F-12 medium, without hygromycin in 96-well culture plates. On day 2, the medium was aspirated and the cells were washed twice with uptake buffer (UB). The cells were then incubated for 20 min at 22° C. with either (i) no potential competitor, (ii) 10 mM non-radioactive glycine, (iii) a concentration of a potential inhibitor. A range of concentrations of the potential inhibitor was used to generate data for calculating the concentration of inhibitor resulting in 50% of the effect (e.g. IC50, the concentration of the competitor inhibiting glycine uptake of 50%). A solution was then immediately added containing [^3H]-glycine 60 nM (11-16 Ci/mmol) and 25 μM non-radioactive glycine. The plates were incubated with gentle shaking and the reaction was stopped by aspiration of the mixture and washing (three times) with ice-cold UB. The cells were lysed with scintillation liquid, shaken 3 hours and the radioactivity in the cells was counted using a scintillation counter.

SMILES | IC50 [nM]
O=C(CNC(=O)c1ccccc1)NC(c1ccccc1)c1cccc(C(F)(F)F)c1 (racemic) [Example 1.30, rac-N-({[Phenyl-(3-trifluoromethyl-phenyl)-methyl]-carbamoyl}-methyl)-benzamide] | 54
O=C(CNC(=O)c1ccc([N+](=O)[O-])s1)NC(c1ccccc1)c1ccc(Cl)cc1 (racemic) [Example 1.32, rac-5-Nitro-thiophene-2-carboxylic acid ({[(4-chloro-phenyl)-phenyl-methyl]-carbamoyl}-methyl)-amide] | 15
N#Cc1ccc(C(=O)NCC(=O)NC(c2ccccc2)c2cccc(C(F)(F)F)c2)cc1 (racemic) [Example 1.44, rac-4-Cyano-N-({[phenyl-(3-trifluoromethyl-phenyl)-methyl]-carbamoyl}-methyl)-benzamide] | 19
O=C(CNC(=O)c1ccc(F)cc1)NC(c1ccccc1)c1ccc(F)cc1 (racemic) [Example 1.69, rac-4-Fluoro-N-({[(4-fluoro-phenyl)-phenyl-methyl]-carbamoyl}-methyl)-benzamide] | 88
O=C(CNC(=O)c1ccc(F)cc1)NC(c1ccccc1)c1cc(F)cc(F)c1 (racemic) [Example 1.72, rac-N-({[(3,5-Difluoro-phenyl)-phenyl-methyl]-carbamoyl}-methyl)-4-fluoro-benzamide] | 25
O=C(CNC(=O)c1ccc(F)cc1)NC(c1ccc(Cl)cc1)c1cccc(C(F)(F)F)c1 (racemic) [Example 1.76, rac-N-({[(4-Chloro-phenyl)-(3-trifluoromethyl-phenyl)-methyl]-carbamoyl}-methyl)-4-fluoro-benzamide] | 74
O=C(CNC(=O)c1ccc(F)cc1)NC(c1ccc(F)cc1)c1cccc(C(F)(F)F)c1 (racemic) [Example 1.77, rac-4-Fluoro-N-({[(4-fluoro-phenyl)-(3-trifluoromethyl-phenyl)-methyl]-carbamoyl}-methyl)-benzamide] | 48
Cc1ccc(C(NC(=O)CNC(=O)c2ccc(F)cc2)c2cccc(C(F)(F)F)c2)cc1 (racemic) [Example 1.78, rac-4-Fluoro-N-({[p-tolyl-(3-trifluoromethyl-phenyl)-methyl]-carbamoyl}-methyl)-benzamide] | 58
Cc1ccc(C(=O)NCC(=O)NC(c2cccc(F)c2)c2cccc(F)c2)s1 [Example 1.86, 5-Methyl-thiophene-2-carboxylic acid ({[bis-(3-fluoro-phenyl)-methyl]-carbamoyl}-methyl)-amide] | 42
O=C(CNC(=O)c1ccsc1)NC(c1cccc(F)c1)c1cccc(F)c1 [Example 1.98, Thiophene-3-carboxylic acid ({[bis-(3-fluoro-phenyl)-methyl]-carbamoyl}-methyl)-amide] | 28
